The record followed here is US10117871B2, “3-hydroxypyrimidine-2,4-dione-5-carboxamides as potent inhibitors of HIV” (Regents of the University of Minnesota, priority 2015, dated 2018).

For one series, the system named is HIV-1IIIB. Nature of the series: HIV-1 cytoprotection (CPE reduction) antiviral assay. The class given is cell-based. The note with it: for inhibition at 10 µM: read-out: CPE reduction %. As for the experimental part:
(§1) The antiviral activity of newly synthesized analogues of chemotype 7 was evaluated against HIV-1IIIB in CEM-SS cells using an assay based on viral cytopathic effect (CPE). In this assay, the reduction of CPE was used to indicate the antiviral activity of a compound.
Briefly virus and cells were mixed in the presence of test compound and incubated for 6 days. […] Each assay plate contained cell control wells (cells only), virus control wells (cells plus virus), compound toxicity control wells (cells plus compound only), compound colorimetric control wells (compound only) as well as experimental wells (compound plus cells plus virus). Cytoprotection and compound cytotoxicity were assessed by MTS (CellTiter® 96 Reagent, Promega, Madison Wis.) and the EC50 (concentration inhibiting virus replication by 50%), CC50 (concentration resulting in 50% cell death) and a calculated TI (therapeutic index CC50/EC50) were provided. Each assay included AZT as a positive control.

In another series the test system is CEM-SS cells. Nature of the series: Compound cytotoxicity (MTS) in the HIV cytoprotection assay. The note with it: for Cell viability %: 10 μM, CEM-SS cells; for CC50: Concentration resulting in 50% cell death. Format: cell-based. As for the experimental part: as §1
Briefly virus and cells were mixed in the presence of test compound and incubated for 6 days. […] Each assay plate contained cell control wells (cells only), virus control wells (cells plus virus), compound toxicity control wells (cells plus compound only), compound colorimetric control wells (compound only) as well as experimental wells (compound plus cells plus virus). […] Each assay included AZT as a positive control.

In another series the target is T1, HIV-1 integrase (Human immunodeficiency virus type 1 group M subtype B, UniProt P04585).
T1 construct: HIV integrase was expressed and purified as previously reported; made in house; host or cells: Escherichia coli
Nature of the series: HIV-1 integrase strand transfer (INST) assay. The class given is biochemical. The method, then: HIV integrase was expressed and purified as previously reported.^43 Inhibition assays were performed using a modified protocol of a reported method.^43 Briefly, 2.1 μL of compound suspended in DMSO was placed in duplicate into a Black 96 well non-binding plate (coming 3991). Compounds were plated in duplicate to a final concentration of 0.13-100 μM. To each well of the plate 186.9 μL of reaction mixture without DNA substrate was added (10 mM HEPES pH 7.5, 10% glycerol w/v, 10 mM MnCl2, 1 mM DTT, 1 μM integrase). The enzyme was incubated with inhibitor for 10 min at 25° C. after which the reaction was initiated by the addition of 21 μL of 500 nM oligo (5′ biotin […] annealed with […] 3′ Cy5). Reactions were incubated at 37° C. for 30 min and then quenched by the addition of 5.2 μL 500 mM EDTA. Each reaction was moved (200 μL) to a MultiScreen HTS PCR plate (Millipore MSSLBPC10) containing 20 μL streptavidin agarose beads (Life Technologies S951) and incubated with shaking for 30 min. A vacuum manifold was used to remove the reaction mixture and the beads were similarly washed 3 times with wash buffer (0.05% SDS, 1 mM EDTA in PBS). The plates were further washed 3 times with 200 μL 50 mM NaOH to denature DNA not covalently linked to the biotin modification. For each denaturation step the plate was incubated with shaking at 25° C. for 5 min and the NaOH was removed by centrifugation at 1000 g for 1 min. The reaction products were eluted from the beads by the addition of 150 μL formamide. The plate was incubated at 25° C. for 10 min and read directly at 635/675 in a SpectraMax i3 plate reader (Molecular Devices). Expression and purification of the recombinant IN in Escherichia coli were performed as previously reported^39, 44 with addition of 10% glycerol to all buffers. Preparation of oligonucleotide substrates has been described.^45 Integrase reactions were performed in 10 μL with 400 nM of recombinant IN, 20 nM of 5′-end [^32P]-labeled oligonucleotide substrate and inhibitors at various concentrations. Solutions of 10% DMSO without inhibitors were used as controls. Reactions were incubated at 37° C. (60 minutes) in buffer containing 50 mM MOPS, pH 7.2, 7.5 mM MgCl2, and 14.3 mM 2-mercaptoethanol. Reactions were stopped by addition of 10 μL of loading dye (10 mM EDTA, 98% deionized formamide, 0.025% xylene cyanol and 0.025% bromophenol blue). Reactions were then subjected to electrophoresis in 20% polyacrylamide-7 M urea gels. Gels were dried and reaction products were visualized and quantitated with a Typhoon 8600 (GE Healthcare, Little Chalfont, Buckinghamshire, UK). Densitometric analyses were performed using ImageQuant from Molecular Dynamics Inc. The concentrations at which enzyme activity was reduced by 50% (IC50) were determined using “Prism” software (GraphPad Software, San Diego, Calif.) for nonlinear regression to fit dose-response data to logistic curve models.

The mark [1] stands for this setting: Human immunodeficiency virus 1, CEM-SS.
Where [2] appears, read: Human immunodeficiency virus 1, 10 μM, HIV-1IIIB in CEM-SS cells.

Where two headings read alike, the source gives them in different places. A value given as a limit tells only on which side of the number the result lay.

For `O=C(NCc1ccccc1)c1c(Nc2ccccc2)[nH]c(=O)n(O)c1=O` [Compound 7-i, N-Benzyl-1-(hydroxy)-1,2,3,6-tetrahydro-2,6-dioxo-4-(phenylamino)pyrimidine-5-carboxamide], the inhibition at 10 µM with HIV-1IIIB (setting [1]) was determined as 0%. Also, the Cell viability % in the series on CEM-SS cells is listed as 21%.
Regarding `O=C(NCc1ccccc1)c1c(Nc2ccc(-c3ccccc3)cc2)[nH]c(=O)n(O)c1=O` [Compound 7-ii, N-Benzyl-1-(hydroxy)-1,2,3,6-tetrahydro-2,6-dioxo-4-(biphenylamino)pyrimidine-5-carboxamide], in the series on HIV-1IIIB (setting [1]), the inhibition at 10 µM amounted to 0%. In the series on CEM-SS cells, this molecule registered a Cell viability % of 13%.
As to `O=C(NCc1cccc(F)c1)c1c(Nc2ccc(-c3ccccc3)cc2)[nH]c(=O)n(O)c1=O` [Compound 7-iii, N-(3-Fluorobenzyl)-1-(hydroxy)-1,2,3,6-tetrahydro-2,6-dioxo-4-(biphenylamino)pyrimidine-5-carboxamide], in the series with HIV-1IIIB (setting [2]), the inhibition at 10 µM was determined as 0%. The same molecule displayed a Cell viability % in the series on CEM-SS cells of 8.7%. Further, the IC50 (commonly the concentration that inhibits the measured activity by half) at HIV-1 integrase (read-out: INST IC50) is more than 100000 nM.
With `O=C(NCc1ccc(F)cc1)c1c(Nc2ccc(-c3ccccc3)cc2)[nH]c(=O)n(O)c1=O` [Compound 7-iv, N-(4-Fluorobenzyl)-1-(hydroxy)-1,2,3,6-tetrahydro-2,6-dioxo-4-(biphenylamino)pyrimidine-5-carboxamide], in the series on HIV-1IIIB (setting [2]), the inhibition at 10 µM amounted to 0%. For the same molecule, in the series with CEM-SS cells, the Cell viability % came out at 9.1%. At HIV-1 integrase (read-out: INST IC50), the IC50 was more than 100000 nM.
Take `O=C(NCc1ccccc1)c1c(NC2CC2)[nH]c(=O)n(O)c1=O` [Compound 7-ix, N-Benzyl-1-(hydroxy)-4-(cyclopropylamino)-1,2,3,6-tetrahydro-2,6-dioxopyrimidine-5-carboxamide]: in the series with HIV-1IIIB (setting [2]), the inhibition at 10 µM turned out to be 98%. The molecule also returned a Cell viability % in the series with CEM-SS cells of 90%. The IC50 on HIV-1 integrase (read-out: INST IC50) amounted to 209 ± 77 nM.
For the molecule `CNc1[nH]c(=O)n(O)c(=O)c1C(=O)NCc1ccccc1` [Compound 7-v, N-Benzyl-1-(hydroxy)-1,2,3,6-tetrahydro-4-(methylamino)-2,6 dioxopyrimidine-5-carboxamide], the EC50 (as a rule, the concentration needed to bring the measured effect to its halfway point) in the series on HIV-1IIIB (Human immunodeficiency virus 1) stood at 830 nM. For the same molecule, the inhibition at 10 µM in the series on HIV-1IIIB (setting [2]) stood at 100%. In the series with CEM-SS cells, the Cell viability % came to 98% and the midpoint of cytotoxicity, the CC50, lay at 58 µM. Moreover, the IC50 on HIV-1 integrase (read-out: INST IC50) turned out to be 80 ± 7 nM.
On to `CCNc1[nH]c(=O)n(O)c(=O)c1C(=O)NCc1ccccc1` [Compound 7-vi, N-Benzyl-1-(hydroxy)-4-(ethylamino)-1,2,3,6-tetrahydro-2,6-dioxopyrimidine-5-carboxamide], for which the EC50 in the series on HIV-1IIIB (Human immunodeficiency virus 1) was 61 nM; in the series with HIV-1IIIB (Human immunodeficiency virus 1, summary of Table 2, read-out: EC50), 15 to 61 nM. For the same molecule, the inhibition at 10 µM with HIV-1IIIB (setting [1]) is 100%. In the series on CEM-SS cells, the Cell viability % amounted to 100%. Besides, the CC50 (commonly the concentration at which the toxic effect on the cells reaches its halfway point) with CEM-SS cells was determined as 23 µM. The values for the IC50 at HIV-1 integrase (read-out: IC50 (ST)) and at HIV-1 integrase (read-out: INST IC50) were 21 to 77 nM and 33 ± 4 nM, respectively.
For the molecule `CCCNc1[nH]c(=O)n(O)c(=O)c1C(=O)NCc1ccccc1` [Compound 7-vii, N-Benzyl-1-(hydroxy)-1,2,3,6-tetrahydro-2,6-dioxo-4-(propylamino)pyrimidine-5-carboxamide], the inhibition at 10 µM in the series with HIV-1IIIB (setting [2]) amounted to 100%. In the series on CEM-SS cells, this molecule had a Cell viability % of 97%. The IC50 on HIV-1 integrase (read-out: INST IC50) is 66 ± 16 nM.
As for `CC(C)Nc1[nH]c(=O)n(O)c(=O)c1C(=O)NCc1ccccc1` [Compound 7-viii, N-Benzyl-1-(hydroxy)-1,2,3,6-tetrahydro-4-(isopropylamino)-2,6-dioxopyrimidine-5-carboxamide], the inhibition at 10 µM with HIV-1IIIB (setting [2]) is 0%. Moreover, the “antiviral activity, in words” value in the series on HIV-1IIIB (single concentration 10 μM, CPE assay) was “inactive”. In the series with CEM-SS cells, the Cell viability % was 17%. Moreover, the “cytotoxicity, in words” value with CEM-SS cells (single concentration 10 μM) is on record as “cytotoxic”. The IC50 at HIV-1 integrase (read-out: INST IC50) was 150 ± 34 nM.
On to `CC(C)(C)Nc1[nH]c(=O)n(O)c(=O)c1C(=O)NCc1ccccc1` [Compound 7-x, 4-(tert-Butylamino)-N-benzyl-1-(hydroxy)-1,2,3,6-tetrahydro-2,6-dioxopyrimidine-5-carboxamide], for which the inhibition at 10 µM in the series on HIV-1IIIB (setting [2]) was found to be 98%. In the series with CEM-SS cells, the Cell viability % was determined as 91%. In addition, the IC50 on HIV-1 integrase (read-out: INST IC50) was found to be 81 ± 15 nM.
As for `Nc1[nH]c(=O)n(O)c(=O)c1C(=O)NCc1ccccc1` [Compound 7-xi, 4-Amino-N-benzyl-1-(hydroxy)-1,2,3,6-tetrahydro-2,6-dioxopyrimidine-5-carboxamide], the inhibition at 10 µM in the series on HIV-1IIIB (setting [2]) came out at 99%. Moreover, the Cell viability % in the series on CEM-SS cells is reported as 100%. Also, the IC50 at HIV-1 integrase (read-out: INST IC50) worked out at 900 ± 290 nM.
As to `CNc1[nH]c(=O)n(O)c(=O)c1C(=O)NCc1cccc(F)c1` [Compound 7-xii, N-(3-Fluorobenzyl)-1-(hydroxy)-1,2,3,6-tetrahydro-4-(methylamino)-2,6-dioxopyrimidine-5-carboxamide], the inhibition at 10 µM with HIV-1IIIB (setting [2]) came out at 100%. For the same molecule, the Cell viability % with CEM-SS cells stood at 95%. On HIV-1 integrase (read-out: INST IC50), the IC50 worked out at 250 ± 48 nM.
As to `CNc1[nH]c(=O)n(O)c(=O)c1C(=O)NCc1ccc(F)cc1` [Compound 7-xiii, N-(4-Fluorobenzyl)-1-(hydroxy)-1,2,3,6-tetrahydro-4-(methylamino)-2,6-dioxopyrimidine-5-carboxamide], in the series on HIV-1IIIB (setting [2]), the inhibition at 10 µM was determined as 100%. In addition, the Cell viability % in the series on CEM-SS cells turned out to be 89%. Moreover, at HIV-1 integrase (read-out: INST IC50), the IC50 was found to be 110 ± 21 nM.
For `CNc1[nH]c(=O)n(O)c(=O)c1C(=O)NCc1cccc(Cl)c1F` [Compound 7-xiv, N-(3-Chloro-2-fluorobenzyl)-1-(hydroxy)-1,2,3,6-tetrahydro-4-(methylamino)-2,6-dioxopyrimidine-5-carboxamide], the inhibition at 10 µM in the series on HIV-1IIIB (setting [2]) is 100%. In the series with CEM-SS cells, the Cell viability % turned out to be 100%. Further, the IC50 on HIV-1 integrase (read-out: INST IC50) turned out to be 110 ± 33 nM.
Regarding `CCNc1[nH]c(=O)n(O)c(=O)c1C(=O)NCc1cc(F)cc(F)c1` [Compound 7-xix, N-(3,5-Difluorobenzyl)-1-(hydroxy)-4-(ethylamino)-1,2,3,6-tetrahydro-2,6-dioxopyrimidine-5-carboxamide], the inhibition at 10 µM in the series on HIV-1IIIB (setting [2]) turned out to be 100%. Besides, the Cell viability % in the series on CEM-SS cells is on record as 100%. Moreover, the IC50 at HIV-1 integrase (read-out: INST IC50) was determined as 230 ± 62 nM.
`CCCNc1[nH]c(=O)n(O)c(=O)c1C(=O)NCc1cccc(Cl)c1F` [Compound 7-xxviii, N-(3-Chloro-2-fluorobenzyl)-1-(hydroxy)-1,2,3,6-tetrahydro-2,6-dioxo-4-(propylamino)pyrimidine-5-carboxamide]: the inhibition at 10 µM in the series on HIV-1IIIB (setting [2]) worked out at 33%. The same molecule gave a Cell viability % in the series on CEM-SS cells of 48%.
In the case of `CCNc1[nH]c(=O)n(OCc2ccccc2)c(=O)c1C(=O)N(C)Cc1ccc(F)cc1` [Compound 15, 3-(Benzyloxy)-6-(ethylamino)-N-(4-fluorobenzyl)-N-methyl-2,4-dioxo-1,2,3,4-tetrahydropyrimidine-5-carboxamide], the IC50 at HIV-1 integrase (read-out: INST IC50) was 7000 ± 3300 nM.
Turning to `O=C(NCc1ccccc1)c1c(O)n(O)c(=O)[nH]c1=O` [Compound 16, N-Benzyl-1,6-dihydroxy-2,4-dioxo-1,2,3,4-tetrahydropyrimidine-5-carboxamide], the IC50 at HIV-1 integrase (read-out: INST IC50) stood at 37000 ± 21000 nM.
`O=C(NCc1ccc(F)cc1)c1c2n(c(=O)n(O)c1=O)CCCN2` [Compound 17, N-(4-Fluorobenzyl)-7-(hydroxy)-2,3,4,6,7,8-hexahydro-6,8-dioxo-1H-pyrimido[1,6-a]pyrimidine-9-carboxamide]: the IC50 at HIV-1 integrase (read-out: INST IC50) amounted to 430 ± 130 nM.
